The values that follow come from ChEMBL document CHEMBL5380807, “Imidazo[1,2-a]Pyridine Derivatives as Novel Dual-Target Inhibitors of ABCB1 and ABCG2 for Reversing Multidrug Resistance” (J Med Chem, 2023).

Series [1] concerns the target T1, Broad substrate specificity ATP-binding cassette transporter ABCG2 (Homo sapiens, UniProt Q9UNQ0).
T1 sequence (Q9UNQ0 whole entry): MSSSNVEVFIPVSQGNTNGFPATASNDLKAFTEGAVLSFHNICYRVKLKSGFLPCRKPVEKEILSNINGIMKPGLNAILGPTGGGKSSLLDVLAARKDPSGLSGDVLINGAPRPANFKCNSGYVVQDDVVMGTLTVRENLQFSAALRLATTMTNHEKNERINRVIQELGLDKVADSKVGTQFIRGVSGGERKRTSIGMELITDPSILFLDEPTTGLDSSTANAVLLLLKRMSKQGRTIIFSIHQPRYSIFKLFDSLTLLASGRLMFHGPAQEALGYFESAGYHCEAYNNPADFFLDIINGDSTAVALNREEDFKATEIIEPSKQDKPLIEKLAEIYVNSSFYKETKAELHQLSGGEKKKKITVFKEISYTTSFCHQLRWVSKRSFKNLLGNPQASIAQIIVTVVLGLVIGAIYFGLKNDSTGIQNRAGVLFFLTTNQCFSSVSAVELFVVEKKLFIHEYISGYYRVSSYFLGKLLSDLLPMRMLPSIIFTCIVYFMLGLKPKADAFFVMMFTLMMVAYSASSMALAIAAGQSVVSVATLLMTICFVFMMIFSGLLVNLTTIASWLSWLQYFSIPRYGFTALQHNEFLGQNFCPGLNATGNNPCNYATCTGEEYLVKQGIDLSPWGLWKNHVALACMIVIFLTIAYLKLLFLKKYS
Kind of series: Inhibition of ABCG2 (unknown origin) ATPase activity assessed as decrease in luminescence by firefly luciferase reporter assay. Background: Reporter assays use an easily measured gene product as a stand-in for the process of interest.

Series [2] deals with ATP-dependent translocase ABCB1 (Homo sapiens, UniProt P08183). The experiment in a line: Inhibition of ABCB1 (unknown origin) ATPase activity assessed as decrease in luminescence by firefly luciferase reporter assay.
The test system of series [3] is K562. Kind of series: Reversal of ABCB1 mediated adriamycin resistance in human K562 cells assessed as reduction in survival rate at 5 uM preincubated for 1 hrs followed by adriamycin addition and measured after 72 hrs by MTS assay. It is filed as functional, cell-based. The settings on record: time 73.0 hrs.
Series [4] relates to K562/A02. Kind of series: Reversal of ABCB1 mediated adriamycin resistance in human K562/A02 cells overexpressing ABCB1 assessed as reduction in survival rate at 1 uM preincubated for 1 hrs followed by adriamycin addition and measured after 72 hrs by MTS assay. It is filed as functional. The settings on record: time 73 hrs. (Tetrazolium dyes change colour on reduction, which living cells bring about.)

The test system of series [5] is K562. Kind of series: Antitumor activity against human K562 cells xenografted in BALB/c mouse assessed as tumor growth inhibition at 20 mg/kg, ip QD for 14 days in presence of adriamycin. It is filed as functional, organism-based. Particulars: time 14.0 day.
In series [6] the test system is K562. Kind of series: Reversal of ABCB1 mediated adriamycin resistance in human K562 cells assessed as reduction in survival rate at 1 uM preincubated for 1 hrs followed by adriamycin addition and measured after 72 hrs by MTS assay. Format: functional, cell-based. Particulars: time 73.0 hrs.
In series [7] the test system is K562/A02. The experiment in a line: Reversal of ABCB1 mediated adriamycin resistance in human K562/A02 cells overexpressing ABCB1 assessed as reduction in survival rate at 5 uM preincubated for 1 hrs followed by adriamycin addition and measured after 72 hrs by MTS assay. It is filed as functional. The settings on record: time 73 hrs.
Series [8] concerns K562/A02. The experiment in a line: Reversal of ABCB1 mediated multidrug resistance in human K562/A02 cells overexpressing ABCB1 assessed as decrease in survival rate at 5 uM preincubated for 1 hrs followed by vincristine addition and measured after 72 hrs by MTS assay. Format: functional. The settings on record: time 73 hrs.
Series [9] is described as follows: Toxicity in BALB/c mouse xenografted with human K562/A02 cells overexpressing ABCB1 assessed as body weight loss at 1 mg/kg, ip BW for 14 days. Format: organism-based. The settings on record: in vivo, 336 h, time 14 day. (In xenograft studies the graft and the host belong to different species.)
Series [10] is described as follows: Cytotoxicity against human K562/A02 cells overexpressing ABCB1 assessed as decrease in cell survival rate incubated for 72 hrs by MTS assay. Format: toxicity, cell-based.
A short description of series [11]: Toxicity in BALB/c mouse xenografted with human K562/A02 cells overexpressing ABCB1 assessed as body weight loss at 1 mg/kg, ip BW for 14 days in presence of verapamil. It is filed as organism-based. The settings on record: in vivo, 336 h, time 14 day.
The test system of series [12] is K562/A02. Kind of series: Antitumor activity against human K562/A02 cells overexpressing ABCB1 xenografted in BALB/c mouse assessed as tumor growth inhibition at 1 mg/kg, ip BW for 14 days in presence of N-(4-(3-((4-Phenyipiperazin-1-yl)methyl)imidazo[l,2-a]pyridin-2-yl)phenyl)-2-(4-(4-(trifluoromethoxy)phenyl)piperazin-1-yl)acetamide. Format: functional, organism-based. The settings on record: time 14.0 day.

A short description of series [13]: Toxicity in BALB/c mouse xenografted with human K562 cells assessed as body weight loss at 1 mg/kg, ip BW for 14 days in presence of verapamil. Format: organism-based. The settings on record: in vivo, 336 h, time 14 day.
The nature of series [14]: Toxicity in BALB/c mouse xenografted with human K562 cells assessed as body weight loss at 1 mg/kg, ip BW for 14 days. Format: organism-based. Particulars: in vivo, 336 h, time 14 day.
The nature of series [15]: Toxicity in BALB/c mouse xenografted with human K562/A02 cells overexpressing ABCB1 assessed as body weight loss at 1 mg/kg, ip BW for 14 days in presence of N-(4-(3-((4-Phenyipiperazin-1-yl)methyl)imidazo[l,2-a]pyridin-2-yl)phenyl)-2-(4-(4-(trifluoromethoxy)phenyl)piperazin-1-yl)acetamide. It is filed as organism-based. The settings on record: in vivo, 336 h, time 14 day.

The test system of series [16] is K562. Kind of series: Antitumor activity against human K562 cells xenografted in BALB/c mouse assessed as tumor growth inhibition at 1 mg/kg, ip BW for 14 days in presence of verapamil. Format: functional, organism-based. The settings on record: time 14.0 day.
Series [17] concerns K562. The experiment in a line: Antitumor activity against human K562 cells xenografted in BALB/c mouse assessed as tumor growth inhibition at 1 mg/kg, ip BW for 14 days in presence of N-(4-(3-((4-Phenyipiperazin-1-yl)methyl)imidazo[l,2-a]pyridin-2-yl)phenyl)-2-(4-(4-(trifluoromethoxy)phenyl)piperazin-1-yl)acetamide. It is filed as functional, organism-based. The settings on record: time 14.0 day.

For series [18], the system named is K562/A02. The experiment in a line: Antitumor activity against human K562/A02 cells overexpressing ABCB1 xenografted in BALB/c mouse assessed as tumor growth inhibition at 1 mg/kg, ip BW for 14 days. The settings on record: time 14.0 day. It is filed as functional, organism-based.
A short description of series [19]: Toxicity in BALB/c mouse xenografted with human K562 cells assessed as body weight loss at 1 mg/kg, ip BW for 14 days in presence of N-(4-(3-((4-Phenyipiperazin-1-yl)methyl)imidazo[l,2-a]pyridin-2-yl)phenyl)-2-(4-(4-(trifluoromethoxy)phenyl)piperazin-1-yl)acetamide. It is filed as organism-based. The settings on record: in vivo, 336 h, time 14 day.
In series [20] the test system is K562. Kind of series: Antitumor activity against human K562 cells xenografted in BALB/c mouse assessed as tumor growth inhibition at 1 mg/kg, ip BW for 14 days. Format: functional, organism-based. Particulars: time 14.0 day.
The test system of series [21] is HEK293. The experiment in a line: Reversal of ABCG2 mediated mitoxantrone resistance in human HEK293 assessed as decrease in survival rate at 1.25 to 5 uM preincubated for 1 hrs followed by mitoxantrone addition and measured after 72 hrs by SRB assay. Format: functional, cell-based. Particulars: dose 1.25-5 µM, time 73.0 hrs.
Series [22] is described as follows: Cytotoxicity against human HEK293 cells assessed as reduction in cell viability incubated for 72 hrs by SRB assay. Format: toxicity, cell-based.
Series [23] has as its system K562. Kind of series: Reversal of ABCB1 mediated adriamycin resistance in human K562 assessed as decrease in survival rate at 1.25 to 5 uM preincubated for 1 hrs followed by adriamycin addition and measured after 72 hrs by MTS assay. It is filed as functional, cell-based. Particulars: dose 1.25-5 µM, time 73.0 hrs.
For series [24], the system named is HEK293. Kind of series: Reversal of ABCG2 mediated mitoxantrone resistance in human HEK293 overexpressing ABCG2 assessed as decrease in survival rate at 1.25 to 5 uM preincubated for 1 hrs followed by mitoxantrone addition and measured after 72 hrs by SRB assay. Format: functional, cell-based. Particulars: dose 1.25-5 µM, time 73.0 hrs.
Series [25] concerns K562/A02. The experiment in a line: Reversal of ABCB1 mediated adriamycin resistance in human K562/A02 overexpressing ABCB1 assessed as decrease in survival rate at 5 uM preincubated for 1 hrs followed by adriamycin addition and measured after 72 hrs by MTS assay. It is filed as functional.
The nature of series [26]: Cytotoxicity against human K562 cells assessed as decrease in cell survival rate incubated for 72 hrs by MTS assay. Format: toxicity, cell-based.
A short description of series [27]: Cytotoxicity against human HEK293 cells expressing ABCG2 assessed as reduction in cell viability incubated for 72 hrs by SRB assay. Format: toxicity, cell-based.
Series [28] deals with K562/A02. Kind of series: Reversal of ABCB1 mediated adriamycin resistance in human K562/A02 overexpressing ABCB1 assessed as decrease in survival rate at 1.25 to 5 uM preincubated for 1 hrs followed by adriamycin addition and measured after 72 hrs by MTS assay. Particulars: dose 1.25-5 µM, time 73.0 hrs. It is filed as functional, cell-based.

Active and inactive are the calls of the source. The calls are words filed in the database; no cut-off is given here.

In general, IC50 refers to the point on the concentration scale where inhibition reaches its midpoint.

Sequence of ATP-dependent translocase ABCB1 (P08183 whole entry): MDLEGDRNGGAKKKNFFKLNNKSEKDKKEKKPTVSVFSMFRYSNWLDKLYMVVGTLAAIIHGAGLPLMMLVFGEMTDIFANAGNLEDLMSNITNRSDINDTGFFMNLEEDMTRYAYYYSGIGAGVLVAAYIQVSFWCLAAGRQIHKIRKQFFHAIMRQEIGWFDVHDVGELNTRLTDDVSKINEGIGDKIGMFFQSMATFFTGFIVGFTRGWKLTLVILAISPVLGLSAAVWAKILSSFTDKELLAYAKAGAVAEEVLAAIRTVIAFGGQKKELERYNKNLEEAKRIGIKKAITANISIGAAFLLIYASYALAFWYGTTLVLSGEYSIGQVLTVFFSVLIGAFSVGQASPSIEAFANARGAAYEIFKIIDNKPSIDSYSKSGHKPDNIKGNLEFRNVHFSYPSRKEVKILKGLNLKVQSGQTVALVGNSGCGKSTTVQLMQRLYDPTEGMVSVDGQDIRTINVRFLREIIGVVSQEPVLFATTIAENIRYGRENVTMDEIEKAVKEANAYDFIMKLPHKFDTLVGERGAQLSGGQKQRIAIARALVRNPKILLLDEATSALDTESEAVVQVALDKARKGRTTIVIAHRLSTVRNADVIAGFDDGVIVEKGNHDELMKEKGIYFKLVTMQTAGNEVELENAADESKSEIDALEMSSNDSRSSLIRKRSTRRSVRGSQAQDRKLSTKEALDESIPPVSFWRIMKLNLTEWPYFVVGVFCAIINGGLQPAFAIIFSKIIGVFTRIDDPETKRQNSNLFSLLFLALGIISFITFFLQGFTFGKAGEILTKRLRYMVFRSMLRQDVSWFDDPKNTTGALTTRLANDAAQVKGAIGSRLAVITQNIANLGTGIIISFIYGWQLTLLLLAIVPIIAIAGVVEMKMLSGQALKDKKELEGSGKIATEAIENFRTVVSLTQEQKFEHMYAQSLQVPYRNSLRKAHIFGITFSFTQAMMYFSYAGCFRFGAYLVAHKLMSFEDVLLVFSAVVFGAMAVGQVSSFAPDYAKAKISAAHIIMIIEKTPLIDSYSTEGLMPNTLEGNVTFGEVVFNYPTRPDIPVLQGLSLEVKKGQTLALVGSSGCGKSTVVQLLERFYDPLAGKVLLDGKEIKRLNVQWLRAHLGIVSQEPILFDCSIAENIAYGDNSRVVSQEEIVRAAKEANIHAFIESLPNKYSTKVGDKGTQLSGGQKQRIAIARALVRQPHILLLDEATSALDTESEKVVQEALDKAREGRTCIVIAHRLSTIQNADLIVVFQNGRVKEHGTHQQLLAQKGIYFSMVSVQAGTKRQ

With `CC[C@@]1(O)C(=O)OCc2c1cc1n(c2=O)Cc2cc3c(CN(C)C)c(O)ccc3nc2-1` [TOPOTECAN], the “inhibition (INH)” value in [1] and in [2] was “Not Active” in each case.
Consider `COc1ccc(CCN(C)CCCC(C#N)(c2ccc(OC)c(OC)c2)C(C)C)cc1OC` (configuration not stated), for which the result in [3] and in series [6] was Active. The figures for the Activity in [4], in series [7] and in series [8] were 70%, 51% and 56%, respectively. For the same molecule, in [5], the result was inactive. Further, in [2], the “inhibition (INH)” value is “Not Active”.
On to `COc1cccc2c1C(=O)c1c(O)c3c(c(O)c1C2=O)C[C@@](O)(C(=O)CO)C[C@@H]3O[C@H]1C[C@H](N)[C@H](O)[C@H](C)O1.Cl` [DOXORUBICIN HYDROCHLORIDE], for which the Activity result in series [9] is on record as “Non-Toxic”; in series [11] it was “Non-Toxic”; in series [13], “Non-Toxic”; in [14], “Toxic”; in [15] it was “Non-Toxic”; in [19] it was “Non-Toxic”. Besides, in series [10], the IC50 at 72 h turned out to be 58.6 µM. Besides, the outcome in series [12] and in [20] was Active. The result in [16], in series [17] and in series [18] was inactive.
For `C=CCN(CC=C)CC(=O)Nc1ccc(-c2nc3ccccn3c2CN2CCc3cc(OC)c(OC)cc3C2)cc1`, the result in series [21] and in series [23] was inactive. Also, the IC50 at 72 h in series [22] worked out at 37.6 µM; in series [10], 65.2 µM; in [26], 45.3 µM; in series [27] it was 11.5 µM. Further, the outcome in [24] and in series [28] was Active. Also, the Activity in series [25] is listed as <30%.
In the case of SODIUM VANADATE, the “inhibition (INH)” value in series [1] and in series [2] was “Active” throughout.
